# Patent US20220105096A1, “INHIBITORS OF HUMAN IMMUNODEFICIENCY VIRUS REPLICATION” (ViiV HEALTHCARE UK (NO.5) LIMITED, priority 2019, published 2022)
# What was measured:
# recombinant NL4-3 virus = test: Antiviral potency in MT-2 cells infected with recombinant NL4-3 Renilla luciferase virus; format: cell-based, HIV; settings: Human immunodeficiency virus 1, NL43, MT2
# Description: MT-2 cells, 293T cells and the proviral DNA clone of NL4-3 virus were obtained from the NIH AIDS Research and Reference Reagent Program. MT-2 cells were propagated in RPMI 1640 media supplemented with 10% heat inactivated fetal bovine serum (FBS), […]. The 293T cells were propagated in DMEM media supplemented with 10% heat inactivated FBS, […] penicillin G and […] streptomycin. A recombinant NL4-3 proviral clone, in which a section of the nef gene was replaced with the Renilla luciferase gene, was used to make the reference virus used in these studies. The recombinant virus was prepared through transfection of the recombinant NL4-3 proviral clone into 293T cells using Transit-293 Transfection Reagent from Mirus Bio LLC (Madison, Wis.). Supernatant was harvested after 2-3 days and the amount of virus present was titered in MT-2 cells using luciferase enzyme activity as a marker by measuring luciferase enzyme activity. Luciferase was quantitated using the EnduRen Live Cell Substrate from Promega (Madison, Wis.). Antiviral activities of compounds toward the recombinant virus were quantified by measuring luciferase activity in MT-2 cells infected for 4-5 days with the recombinant virus in the presence of serial dilutions of the compound. […]
# [1] = Subcutaneous in vivo PK experiment in rat; parameters: species or system Wistar Han Rats; settings: subcutaneous injection 20 mg/kg
# Description: Drug was formulated in 1% Kolliphor P188/1% PEG3350/3.5% Mannitol/94.5% Water and then administered to Wistar Han Rats as a subcutaneous injection at a dose of 20 mg/kg. Blood samples were collected at 0.167, 0.25, 0.5, 0.75, 1, 2, 3, 5, 7, 24, 48, 72, 96 h, and then every 3 days for up to 122 days. Blood samples were collected into K3EDTA tubes and centrifuged at 1500 to 2000×g to obtain plasma. Plasma samples were stored at −20° C. until analysis by LC-MS/MS.
# [2] = Metabolism in human liver microsomes; format: in vitro ADME; settings: pH 7.4, 1 μM compound, 1 mg/mL microsomes, NADPH, 37° C., read-out: Human liver microsome T1/2
# Description: Liver microsomes from human, rat dog and monkey were thawed and diluted to a final concentration of 1 mg/mL in 100 mM potassium phosphate buffer (pH 7.4). Test compounds and controls were prepared at 100× final concentration of 1 μM in 1:1 acetonitrile:water (v/v) and aliquoted into microsomal mixture. The mixture was preincubated at 37° C. in a shaking water bath for 10 minutes. The incubations were performed in duplicate. Three controls were included in the incubations; warfarin, phenacetin, and verapamil. After the preincubation, the reaction was initiated with NADPH at a final concentration of 1 mM. At 0, 5, 15, 30, 45 and 60 minutes, 25 μL of sample was removed and quenched with 300 μL of acetonitrile containing internal standard (Telmisartan). The samples were vortexed for 5 minutes at 1200 rpm and then centrifuged at 4000 rpm for 10 min. A 100 μL aliquot of supernatant was diluted three-fold with water and injected on an Exion LC 4500 Triple Quad LC-MS/MS system. Results were reported as a percentage of parent remaining and was calculated from peak area ratios of test compound remaining after at each time point and compared to time zero incubation.
smiles,measurement,setting,value
"Cn1nc(NS(C)(=O)=O)c2c(Cl)ccc(-n3c([C@H](Cc4cc(F)cc(F)c4)NC(=O)Cn4nc(C(F)F)c5c4C(F)(F)[C@@H]4C[C@H]54)nc4nc(OCCC(C)(F)F)ccc4c3=O)c21 (atropisomer, axis not shown; (P)) [Example 1, N—((S)-1-((3P)-3-(4-chloro-1-methyl-3-(methylsulfonamido)-1H-indazol-7-yl)-7-(3,3-difluorobutoxy)-4-oxo-3,4-dihydropyrido[2,3-d]pyrimidin-2-yl)-2-(3,5-difluorophenyl)ethyl)-2-((3bS,4aR)-3-(difluoromethyl)-5,5-difluoro-3b,4,4a,5-tetrahydro-1H-cyclopropa[3,4]cyclopenta[1,2-c]pyrazol-1-yl)acetamide]",EC50,recombinant NL4-3 virus,0.019 ± 0.006 nM
same,half-life,"[1]; Wistar Han, plasma, sc, read-out: apparent half-life of compound in plasma (converted)",50 days
same,time drug concentrations were maintained above 5 ng/mL,[1],87 days
same,half-life at 1 μM,[2],> 0.0833 days
